Experimental data reported in patent US11993576B2, “N-benzyl-N-arylsulfonamide derivative and preparation and use thereof” (Hangzhou Yirui Pharmaceutical Technology Co., Ltd, priority 2019, dated 2024).

What was measured:
human Kv1.3 = human Kv1.3 (Homo sapiens, UniProt P22001); experiment: Conventional patch clamp assay of inhibitory activity against Kv1.3; assay type: cell-based; settings: conventional patch-clamp method; CHO-K1 cells stably expressing human Kv1.3
Source text: II. Conventional Patch Clamp Assay of Inhibitory Activity Against Kv1.3
In order to compare the influence of different assay methods on the inhibitory activity of a compound, the conventional patch clamp method was used to assay the inhibitory activities of compounds 21, 37, 44, 61 against Kv1.3. The principle and method for the conventional patch clamp method can be found in Grissmer et al. [Grissmer et al. Molecular Pharmacology 1994, 45:1227-1234].
(§1) Inhibitory activity of the compounds against Kv1.3 was assessed using a CHO-K1 recombinant cell line stably expressing human Kv1.3 (Charles River, California). The cells were cultured in an F-12K culture medium containing 5% calf serum (Invitrogen, Carlsbad.ca) in an incubator at 37° C. and under air humidity with 6% CO2.
(§2) During the experiment, adherent cells were placed in a recording chamber under an inverted microscope. All the experiments were performed at room temperature. Each of the cells used itself as the control.
(§3) The test compounds were formulated to their final concentrations on the day of assay, and then dissolved in an extracellular fluid. The extracellular fluid (mM) was: NaCl, 137; KCl, 4; CaCl2, 1.8; MgCl2, 1; HEPES, 10; glucose 10; pH 7.4 (NaOH titration). All the solutions of the test compounds and the control compounds contained 0.3% of DMSO.
(§4) Each of the compounds was perfused by a gravity-driven perfusion system. At least two cells were tested for each of the concentrations of a compound. After the current was stable, the blocking effect of the compounds was calculated by comparing the change in the current before and after administration of the compounds. 1000 μM 4-AP was used as a positive control.
(§5) The cells were transferred to a perfusion chamber, and were perfused with the extracellular fluid. Intracellular fluid (mM): K-aspartate, 130; MgCl2, 5; EGTA 5; HEPES, 10; pH 7.2 (KOH titration). The intracellular fluid was stored in a small amount in a refrigerator at −80° C. in batches, and was thawed on the day of the experiment. The electrodes were drawn by PC-10 (Narishige, Japan). A whole-cell patch-clamp recording was performed, with the noise being filtered by one-fifth of the sampling frequency.
(§6) The cells were clamped at −80 mV and then depolarized to 0 mV with square waves lasting for 2 seconds to obtain a Kv1.3 current. This process was repeated every 20 seconds. The maximum current elicited by the square waves was detected. After the maximum current became stable, the test compounds were perfused. After the reaction was stable, the blocking strength was calculated.
Data was collected and analyzed using pCLAMP 10 (Molecular Devices, Union City, CA). A stable current meant a current which varies within a limited range over time. […]

human Kv1.5 = human Kv1.5 (Homo sapiens, UniProt P22460); experiment: Conventional patch clamp assay of inhibitory activity against Kv1.5; assay type: cell-based; settings: conventional patch-clamp method; CHO-K1 cells stably expressing human Kv1.5
Sequence of human Kv1.5 (P22460 whole entry): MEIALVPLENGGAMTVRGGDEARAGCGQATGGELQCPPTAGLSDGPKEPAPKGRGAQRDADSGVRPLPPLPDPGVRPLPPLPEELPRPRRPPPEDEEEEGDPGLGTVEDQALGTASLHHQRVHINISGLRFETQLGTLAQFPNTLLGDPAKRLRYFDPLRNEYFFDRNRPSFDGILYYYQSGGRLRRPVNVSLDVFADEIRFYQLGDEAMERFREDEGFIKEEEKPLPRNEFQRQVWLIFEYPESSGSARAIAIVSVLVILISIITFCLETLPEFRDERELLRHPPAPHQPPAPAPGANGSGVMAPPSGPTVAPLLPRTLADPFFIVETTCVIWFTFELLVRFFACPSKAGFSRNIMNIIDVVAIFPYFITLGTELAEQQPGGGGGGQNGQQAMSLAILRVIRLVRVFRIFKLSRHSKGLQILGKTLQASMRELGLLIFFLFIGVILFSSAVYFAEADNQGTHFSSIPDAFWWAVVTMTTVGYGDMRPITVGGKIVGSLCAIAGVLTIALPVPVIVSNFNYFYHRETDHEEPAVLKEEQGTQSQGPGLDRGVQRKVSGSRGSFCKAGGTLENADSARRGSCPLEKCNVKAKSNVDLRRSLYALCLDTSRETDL
Method: III. Conventional Patch Clamp Assay of Inhibitory Activity Against Kv1.5
The principle and method for the conventional patch clamp method can be found in Grissmer et al. [Grissmer et al. Molecular Pharmacology 1994, 45:1227-1234].
as §1, with “a” for “the”, “Kv1.5” for “Kv1.3”, “Calif.).” for “California).”
as §2, §3
as §4, with “compounds.” for “compounds. 1000 μM 4-AP was used as a positive control.”
1000 μM 4-AP was used as a positive control.
as §5
as §6, with “to 20” for “to 0”, “a Kv1.5” for “a Kv1.3”
Data was collected and analyzed using pCLAMP 10 (Molecular Devices, Union City, CA). A stable current meant a current which varies within a limited range over time. The value of the stable current was used to calculate the effect of a compound at this […].

Sequence of human Kv1.3 (P22001 whole entry): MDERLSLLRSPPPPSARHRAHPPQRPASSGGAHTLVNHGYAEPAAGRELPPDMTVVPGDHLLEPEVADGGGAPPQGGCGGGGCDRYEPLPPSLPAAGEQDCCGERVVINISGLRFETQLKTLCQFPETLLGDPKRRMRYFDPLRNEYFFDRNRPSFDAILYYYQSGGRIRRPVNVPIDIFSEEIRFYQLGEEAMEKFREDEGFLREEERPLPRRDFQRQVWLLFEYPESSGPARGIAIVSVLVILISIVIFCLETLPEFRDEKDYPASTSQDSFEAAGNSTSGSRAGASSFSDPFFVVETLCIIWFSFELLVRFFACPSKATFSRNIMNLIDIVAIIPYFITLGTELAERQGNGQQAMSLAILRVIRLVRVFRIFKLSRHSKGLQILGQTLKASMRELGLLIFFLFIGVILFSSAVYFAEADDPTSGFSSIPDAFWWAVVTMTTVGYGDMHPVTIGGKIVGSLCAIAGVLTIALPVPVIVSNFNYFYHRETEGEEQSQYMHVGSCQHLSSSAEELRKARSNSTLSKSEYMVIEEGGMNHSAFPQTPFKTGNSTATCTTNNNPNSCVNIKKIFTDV

CC(C)CS(=O)(=O)N(Cc1ccc(F)cc1)c1ccc(N2CCN(C(=O)N(C)C)CC2)c(C#N)c1 [Compound 37, 4-(2-cyano-4-((N-(4-fluorobenzyl)-2-methylpropyl)sulfonamido)phenyl)-N,N-dimethylpiperazin-1-formamide] showed an IC50 (human Kv1.3) of 0.108 µM and an IC50 (human Kv1.5) of 3.65 µM.
